Experimental data reported in US20250122173A1, “MODULATORS OF RHO-ASSOCIATED PROTEIN KINASE” (Redx Pharma Limited, priority 2022, published 2025).
pIC50: −log10 of the molar value.

Columns and labels:
ROCK2 = target: T1, ROCK2 (Homo sapiens, UniProt O75116); assay: ROCK2 inhibition assay (ADP-Glo kinase assay, called ROCK2 binding activity); format: biochemical; conditions: 20 μM ATP, 1 hour pre-incubation, read-out: ROCK 2 (IC50 category)
T1 construct: N-terminal 6His-tagged ROCK2 catalytic domain 11-552; 6His (N); purchased Dundee University, UK; host or cells: baculovirus expression system
T1 sequence (O75116 11-552): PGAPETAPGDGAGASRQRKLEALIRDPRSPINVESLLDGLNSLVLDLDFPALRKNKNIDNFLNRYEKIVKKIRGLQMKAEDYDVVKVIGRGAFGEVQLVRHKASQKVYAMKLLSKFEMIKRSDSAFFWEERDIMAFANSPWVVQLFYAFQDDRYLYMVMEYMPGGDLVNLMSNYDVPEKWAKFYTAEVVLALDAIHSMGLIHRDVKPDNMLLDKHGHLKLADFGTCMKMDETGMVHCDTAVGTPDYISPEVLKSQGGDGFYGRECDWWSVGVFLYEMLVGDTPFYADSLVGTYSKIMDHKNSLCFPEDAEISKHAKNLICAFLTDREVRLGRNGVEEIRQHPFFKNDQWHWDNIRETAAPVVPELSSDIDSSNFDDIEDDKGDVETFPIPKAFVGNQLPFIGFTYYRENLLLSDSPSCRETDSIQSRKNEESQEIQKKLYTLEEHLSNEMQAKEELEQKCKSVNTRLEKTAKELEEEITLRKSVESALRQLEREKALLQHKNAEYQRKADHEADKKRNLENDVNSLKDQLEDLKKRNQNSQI
Procedure: ROCK2 Binding Activity: Assay for ROCK2 inhibition was performed using the protein construct N-terminal 6His-tagged ROCK2 catalytic domain 11-552 (Dundee University, UK). Protein was purified from a baculovirus expression system. Long S6 peptide ([…]) was used as substrate. Kinase reactions were carried out in 15 μl volume in a 96-well plate (black, half area) using 1.25 nM constitutively active ROCK2 kinase, 100 μM long S6 peptide, 20 μM ATP and test compound in DMSO (or DMSO only for controls). The final concentration of DMSO was 1%. Assay buffer was 50 mM HEPES pH 7.5 supplemented with 0.2 mM EDTA, 10 mM magnesium acetate, 0.01% Tween-20, 1 mM DTT and 0.01% BSA. Test compounds were pre-incubated with ROCK2 kinase for 1 hour before addition of ATP and long S6 peptide. After incubation for a further 1 hour, the amount of ADP produced was measured using ADP-Glo Kinase Assay (Promega) as per manufacturer's instructions. The luminescence was measured on a PHERAstar FS (BMG Labtech). The concentration of test compound required to inhibit ADP production by 50% (the IC50) was calculated using a four-parameter logistic function with software by Dotmatics. […] The category “+” refers to compounds with a ROCK2 or ROCK1 IC50 value of >10 μM. The category “++” refers to compounds with a ROCK2 or ROCK1 IC50 value of 10 to 3 μM. The category “+++” refers to compounds with a ROCK1 or ROCK2 IC50 value of 3 to 0.3 μM. The category “++++” refers to compounds with a ROCK1 or ROCK2 IC50 value of <0.3 μM.

ROCK1 = ROCK1 (Homo sapiens, UniProt Q13464); assay: ROCK1 inhibition assay (ROCK1 binding activity, as determined by the assay described for ROCK2); format: biochemical; conditions: read-out: ROCK 1 (IC50 category)
ROCK1, sequence (Q13464 whole entry, the tested form may be a part): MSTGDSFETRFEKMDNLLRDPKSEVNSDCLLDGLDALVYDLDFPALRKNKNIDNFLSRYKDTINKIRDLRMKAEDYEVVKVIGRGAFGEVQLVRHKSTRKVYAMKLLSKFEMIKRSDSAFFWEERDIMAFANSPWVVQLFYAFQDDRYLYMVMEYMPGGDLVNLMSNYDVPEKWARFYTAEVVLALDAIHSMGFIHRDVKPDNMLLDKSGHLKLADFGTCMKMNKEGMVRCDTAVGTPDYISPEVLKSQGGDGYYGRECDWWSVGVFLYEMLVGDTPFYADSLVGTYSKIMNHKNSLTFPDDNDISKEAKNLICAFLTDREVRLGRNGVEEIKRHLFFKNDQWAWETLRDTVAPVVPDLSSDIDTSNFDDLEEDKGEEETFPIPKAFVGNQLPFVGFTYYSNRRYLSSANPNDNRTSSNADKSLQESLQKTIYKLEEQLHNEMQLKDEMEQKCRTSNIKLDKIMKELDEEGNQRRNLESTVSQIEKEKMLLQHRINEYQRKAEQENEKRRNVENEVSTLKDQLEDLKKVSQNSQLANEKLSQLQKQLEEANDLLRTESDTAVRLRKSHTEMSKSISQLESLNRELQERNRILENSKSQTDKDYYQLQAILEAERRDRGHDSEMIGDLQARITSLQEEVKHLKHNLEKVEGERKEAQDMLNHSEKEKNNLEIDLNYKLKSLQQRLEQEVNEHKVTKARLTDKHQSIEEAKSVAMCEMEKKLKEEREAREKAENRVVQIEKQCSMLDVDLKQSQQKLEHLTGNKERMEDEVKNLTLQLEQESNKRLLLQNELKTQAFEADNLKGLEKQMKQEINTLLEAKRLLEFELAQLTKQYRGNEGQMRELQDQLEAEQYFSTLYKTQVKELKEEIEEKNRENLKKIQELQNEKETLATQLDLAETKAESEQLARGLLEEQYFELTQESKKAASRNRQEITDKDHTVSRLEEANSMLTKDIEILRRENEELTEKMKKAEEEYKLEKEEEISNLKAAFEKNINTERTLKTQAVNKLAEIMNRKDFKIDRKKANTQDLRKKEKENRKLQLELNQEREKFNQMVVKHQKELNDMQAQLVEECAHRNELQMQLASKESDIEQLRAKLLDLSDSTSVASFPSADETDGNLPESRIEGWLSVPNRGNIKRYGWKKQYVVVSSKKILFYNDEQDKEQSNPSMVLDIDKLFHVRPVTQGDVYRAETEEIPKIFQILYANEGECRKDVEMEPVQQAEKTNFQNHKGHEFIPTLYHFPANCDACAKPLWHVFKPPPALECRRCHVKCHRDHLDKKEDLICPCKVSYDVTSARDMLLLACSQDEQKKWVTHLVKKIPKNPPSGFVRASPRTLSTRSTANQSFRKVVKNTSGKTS
Procedure: Assay for ROCK2 inhibition was performed using the protein construct N-terminal 6His-tagged ROCK2 catalytic domain 11-552 (Dundee University, UK). Protein was purified from a baculovirus expression system. Long S6 peptide ([…]) was used as substrate. Kinase reactions were carried out in 15 μl volume in a 96-well plate (black, half area) using 1.25 nM constitutively active ROCK2 kinase, 100 μM long S6 peptide, 20 μM ATP and test compound in DMSO (or DMSO only for controls). The final concentration of DMSO was 1%. Assay buffer was 50 mM HEPES pH 7.5 supplemented with 0.2 mM EDTA, 10 mM magnesium acetate, 0.01% Tween-20, 1 mM DTT and 0.01% BSA. Test compounds were pre-incubated with ROCK2 kinase for 1 hour before addition of ATP and long S6 peptide. After incubation for a further 1 hour, the amount of ADP produced was measured using ADP-Glo Kinase Assay (Promega) as per manufacturer's instructions. The luminescence was measured on a PHERAstar FS (BMG Labtech). The concentration of test compound required to inhibit ADP production by 50% (the IC50) was calculated using a four-parameter logistic function with software by Dotmatics. […] The category “+” refers to compounds with a ROCK2 or ROCK1 IC50 value of >10 μM. The category “++” refers to compounds with a ROCK2 or ROCK1 IC50 value of 10 to 3 μM. The category “+++” refers to compounds with a ROCK1 or ROCK2 IC50 value of 3 to 0.3 μM. The category “++++” refers to compounds with a ROCK1 or ROCK2 IC50 value of <0.3 μM.

Row | SMILES | pIC50 (ROCK2) | pIC50 (ROCK1)
1 | CCn1nc(-c2ccc(-c3ccc(C)nc3)cc2)nc1Nc1cc2c(cc1C)C(=O)NC2C (single isomer, unassigned) [Example 78] | > 6.52 | 5.00 to 5.52
2 | CCn1nc(-c2ccc(-c3ccc(C)nc3)cc2)nc1Nc1cc2c(cc1C)C(=O)NC2C (single isomer, unassigned) [Example 84] | > 6.52 | 5.00 to 5.52
3 | Cc1cn(-c2ccc(-c3nc(Nc4ccc5c(c4)CNC5=O)n(C)n3)cc2)cn1 [Example 1] | > 6.52 | < 5.00
4 | CCn1nc(-c2ccc(-n3cc(C4CC4)nc3C)cc2)nc1Nc1ccc2c(c1)CNC2=O [Example 4] | > 6.52 | 5.00 to 5.52
5 | Cn1nc(-c2ccc(-c3ccnc(C(F)(F)F)c3)cc2)nc1Nc1ccc2c(c1)CNC2=O [Example 5] | > 6.52 | 5.00 to 5.52
6 | CCn1nc(-c2ccc(-n3cc(C4CC4)nc3C)cc2)nc1Nc1ccc2c(c1C)CNC2=O [Example 8] | > 6.52 | < 5.00
7 | Cn1nc(-c2ccc(-c3ccc(C(F)(F)F)nc3)cc2)nc1Nc1ccc2c(c1)CNC2=O [Example 10] | > 6.52 | < 5.00
8 | CCn1nc(-c2ccc(-c3ccc(C)nc3)cc2)nc1Nc1ccc2c(c1)CNC2=O [Example 15] | > 6.52 | 5.00 to 5.52
9 | CCn1nc(-c2ccc(-n3cnc(C4CC4)c3)cc2)nc1Nc1ccc2c(c1)C(C)NC2=O (stereo not drawn) [Example 21] | > 6.52 | 5.00 to 5.52
10 | CCn1nc(-c2ccc(-n3cnc(C4CC4)c3)cc2)nc1Nc1ccc2c(c1)C1(CC1)NC2=O [Example 23] | > 6.52 | < 5.00
11 | CCn1nc(-c2ccc(-n3cnc(C4CC4)c3)cc2)nc1Nc1ccc2c(c1)CNC2=O [Example 24] | > 6.52 | 5.00 to 5.52
12 | CCn1nc(-c2ccc(-c3cnc(C4CC4)n3C)cc2)nc1Nc1ccc2c(c1)CNC2=O [Example 25] | > 6.52 | 5.00 to 5.52
13 | CCn1nc(-c2ccc(-c3ccc(C)nc3)c(C)c2)nc1Nc1ccc2c(c1)CNC2=O [Example 31] | > 6.52 | 5.00 to 5.52
14 | CCn1nc(-c2ccc(-c3ccnc(C)c3)c(F)c2)nc1Nc1ccc2c(c1)CNC2=O [Example 34] | > 6.52 | 5.00 to 5.52
15 | CCn1nc(-c2ccc(-c3ccc(C)nc3)c(OC)c2)nc1Nc1ccc2c(c1)CNC2=O [Example 36] | > 6.52 | > 6.52
16 | CCn1nc(-c2ccc(-c3ccc(C)nc3)nc2)nc1Nc1ccc2c(c1)CNC2=O [Example 39] | > 6.52 | < 5.00
17 | CCn1nc(-c2ccc(-c3ccc(C)nc3)cc2)nc1Nc1cc2c(cc1C)C(=O)NC2C (stereo not drawn) [Example 41] | > 6.52 | 5.00 to 5.52
18 | CCn1nc(-c2ccc(-c3cnc(C)c(C)c3)cc2)nc1Nc1ccc2c(c1)CNC2=O [Example 42] | > 6.52 | > 6.52
19 | CCn1nc(-c2ccc(-c3ccc(C)nc3)cc2)nc1Nc1ccc2c(c1C)C(C)NC2=O (stereo not drawn) [Example 43] | 5.00 to 5.52 | < 5.00
20 | CCn1nc(-c2ccc(-c3ccc(C)cn3)c(C)c2)nc1Nc1ccc2c(c1)CNC2=O [Example 44] | > 6.52 | < 5.00
21 | CCn1nc(-c2ccc(-n3cnc(C4CC4)c3)cc2)nc1Nc1cc2c(cc1C)C(=O)NC2C (stereo not drawn) [Example 45] | > 6.52 | 5.00 to 5.52
22 | CCn1nc(-c2ccc(-c3ccc(C)nc3)cc2)nc1Nc1cnc2c(c1)CNC2=O [Example 46] | 5.52 to 6.52 | < 5.00

Further lines, results first:

Row | pIC50 (ROCK2) | pIC50 (ROCK1) | SMILES
23 | > 6.52 | < 5.00 | CCc1cn(-c2ccc(-c3nc(Nc4ccc5c(c4)CNC5=O)n(C)n3)cc2)c(C)n1 [Example 2]
24 | > 6.52 | < 5.00 | Cc1nc(C2CC2)cn1-c1ccc(-c2nc(Nc3ccc4c(c3)CNC4=O)n(C)n2)cc1 [Example 3]
25 | > 6.52 | < 5.00 | Cn1nc(-c2ccc(C(=O)NCC(F)(F)F)cc2)nc1Nc1ccc2c(c1)CNC2=O [Example 6]
26 | 5.00 to 5.52 | < 5.00 | Cn1nc(-c2ccc(C(=O)NCC(F)F)cc2)nc1Nc1ccc2c(c1)CNC2=O [Example 7]
27 | 5.00 to 5.52 | < 5.00 | Cn1nc(-c2cccc(C(=O)NCC(F)(F)F)c2)nc1Nc1ccc2c(c1)CNC2=O [Example 9]
28 | 5.00 to 5.52 | < 5.00 | CCn1nc(-c2ccc(-c3cnc(C4CC4)n3C)cc2)nc1Nc1ccc2c(c1C)CNC2=O [Example 11]
29 | 5.00 to 5.52 | < 5.00 | Cc1cc(-c2nc(Nc3ccc4c(c3C)CNC4=O)n(C)n2)ccc1-c1cnc(C2CC2)n1C [Example 12]
30 | > 6.52 | < 5.00 | Cc1cc(-c2nc(Nc3ccc4c(c3C)CNC4=O)n(C)n2)ccc1-n1cnc(C2CC2)c1 [Example 13]
31 | > 6.52 | < 5.00 | Cn1nc(-c2ccc(-n3cnc(C4CC4)c3)cc2)nc1Nc1ccc2c(c1)CNC2=O [Example 14]
32 | > 6.52 | < 5.00 | Cn1nc(-c2ccc(-n3cnc(C4CC4)c3)cc2)nc1Nc1ccc2c(c1)C(C)(C)NC2=O [Example 16]
33 | 5.00 to 5.52 | < 5.00 | Cc1nc(C2CC2)cn1-c1ccc(-c2nc(Nc3ccc4c(c3)C(C)(C)NC4=O)n(C)n2)cc1 [Example 17]
34 | 5.00 to 5.52 | < 5.00 | CCn1nc(-c2ccc(-n3cc(C4CC4)nc3C)cc2)nc1Nc1ccc2c(c1)C(C)(C)NC2=O [Example 18]
35 | > 6.52 | < 5.00 | CCn1nc(-c2ccc(-n3cnc(C4CC4)c3)cc2)nc1Nc1ccc2c(c1)C(C)(C)NC2=O [Example 19]
36 | > 6.52 | 5.00 to 5.52 | CCn1nc(-c2ccc(-c3ccc(C4CC4)nc3)cc2)nc1Nc1ccc2c(c1)CNC2=O [Example 20]
37 | > 6.52 | 5.00 to 5.52 | CCn1nc(-c2ccc(-n3cc(C4CC4)nc3C)cc2)nc1Nc1ccc2c(c1)C(C)NC2=O (stereo not drawn) [Example 22]
38 | > 6.52 | 5.00 to 5.52 | CCn1nc(-c2ccc(-c3ccnc(C)c3)c(C)c2)nc1Nc1ccc2c(c1)CNC2=O [Example 26]
39 | > 6.52 | 5.00 to 5.52 | CCn1nc(-c2ccc(-c3ccc(C)cn3)cc2)nc1Nc1ccc2c(c1)CNC2=O [Example 27]
40 | > 6.52 | 5.00 to 5.52 | CCn1nc(-c2ccc(-c3ccccn3)cc2)nc1Nc1ccc2c(c1)CNC2=O [Example 28]
41 | > 6.52 | 5.00 to 5.52 | CCn1nc(-c2ccc(-c3cccnc3)cc2)nc1Nc1ccc2c(c1)CNC2=O [Example 29]
42 | > 6.52 | 5.00 to 5.52 | CCn1nc(-c2ccc(-c3ccncc3)cc2)nc1Nc1ccc2c(c1)CNC2=O [Example 30]
43 | > 6.52 | > 6.52 | CCn1nc(-c2ccc(-c3ccnc(C4CC4)c3)c(C)c2)nc1Nc1ccc2c(c1)CNC2=O [Example 32]
44 | > 6.52 | 5.00 to 5.52 | CCn1nc(-c2ccc(-c3ccnc(C4CC4)c3)c(F)c2)nc1Nc1ccc2c(c1)CNC2=O [Example 33]
45 | 5.00 to 5.52 | < 5.00 | CCn1nc(-c2ccc(-c3ccc(C)nc3)cc2)nc1Nc1ccc2c(c1)CN(C)C2=O [Example 35]
46 | > 6.52 | < 5.00 | CCn1nc(-c2ccc(-c3ccc(C4CC4)nc3)c(F)c2)nc1Nc1ccc2c(c1)CNC2=O [Example 37]
47 | > 6.52 | < 5.00 | CCn1nc(-c2ccc(-c3ccc(C4CC4)nc3)c(C)c2)nc1Nc1ccc2c(c1)CNC2=O [Example 40]
48 | > 6.52 | 5.00 to 5.52 | CCn1nc(-c2ccc(-c3ccc(C4CC4)nc3)cc2)nc1Nc1ccc2c(c1)C(C)NC2=O (stereo not drawn) [Example 47]
